Reference: PubChem BioAssay AID1963431 (Molecular Pharmacology Branch, DTP, NCI, 2024)
Values belong to the compound of their own block, whether it stands above or below them.

System: Rh18 complex spheroid viability, percent test/control
Assay: Anticancer human tumor Rh18 cell line growth inhibition [Asc];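 also: spheroids exposed to compound for 7 days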;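 as to viability, T/C: 100% = DMSO vehicle control wells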
Details: for IC50: curve of first compound; for viability, T/C: stronger effect = lower value
In short: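 Tumor cells were grown as multicellular spheroids with stromal HUVEC and mesenchymal stem cells and treated singly or in combination. Concentrations fell in half-log steps from the clinical Cmax, or from 10 microM where none was known.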

[1] = second compound 0.1 µM, first compound 0.0316 µM
[2] = second compound 0.1 µM, first compound 0.1 µM
[3] = second compound 0.316 µM, first compound 0.0316 µM
[4] = second compound 0.316 µM, first compound 0.1 µM
[5] = second compound 1 µM, first compound 0.0316 µM
[6] = second compound 1 µM, first compound 0.1 µM
[7] = second compound 3.16 µM, first compound 0.0316 µM
[8] = second compound 3.16 µM, first compound 0.1 µM
[9] = second compound 10 µM, first compound 0.0316 µM
[10] = second compound 10 µM, first compound 0.1 µM

- IC50 (second compound 0.1 µM): < 0.316 nM
- IC50 (second compound 0.316 µM): < 0.316 nM
- IC50 (second compound 1 µM): < 0.316 nM
- IC50 (second compound 3.16 µM): < 0.316 nM
- IC50 (second compound 10 µM): < 0.316 nM
Compound: Cn1ncnc1[C@H]1c2n[nH]c(=O)c3cc(F)cc(c23)N[C@@H]1c1ccc(F)cc1 + Cc1c(S(C)(=O)=O)c(-c2cc(F)cc(N3CCN(c4ccc(NS(=O)(=O)c5ccc(NC(CCN6CCC(C(=O)OCCCP(=O)(O)O)CC6)CSc6ccccc6)c(S(=O)(=O)C(F)(F)F)c5)cc4)CC3)c2)c(-c2ccc(Cl)cc2)n1C(C)C
- viability, T/C (second compound 0.1 µM, first compound 0.000316 µM): 17.4%
- viability, T/C (second compound 0.1 µM, first compound 0.001 µM): 14.9%
- viability, T/C (second compound 0.1 µM, first compound 0.00316 µM): 17%
- viability, T/C (second compound 0.1 µM, first compound 0.01 µM): 15.3%
- viability, T/C [1]: 13.6%
- viability, T/C [2]: 15.4%
- viability, T/C (second compound 0.316 µM, first compound 0.000316 µM): 10.9%
- viability, T/C (second compound 0.316 µM, first compound 0.001 µM): 11.7%
- viability, T/C (second compound 0.316 µM, first compound 0.00316 µM): 10.6%
- viability, T/C (second compound 0.316 µM, first compound 0.01 µM): 11.8%
- viability, T/C [3]: 11.4%
- viability, T/C [4]: 12.6%
- viability, T/C (second compound 1 µM, first compound 0.000316 µM): 10.5%
- viability, T/C (second compound 1 µM, first compound 0.001 µM): 9.96%
- viability, T/C (second compound 1 µM, first compound 0.00316 µM): 7.96%
- viability, T/C (second compound 1 µM, first compound 0.01 µM): 6.9%
- viability, T/C [5]: 8.38%
- viability, T/C [6]: 9.11%
- viability, T/C (second compound 3.16 µM, first compound 0.000316 µM): 5.76%
- viability, T/C (second compound 3.16 µM, first compound 0.001 µM): 7.46%
- viability, T/C (second compound 3.16 µM, first compound 0.00316 µM): 5.55%
- viability, T/C (second compound 3.16 µM, first compound 0.01 µM): 6.19%
- viability, T/C [7]: 6.82%
- viability, T/C [8]: 6.64%
- viability, T/C (second compound 10 µM, first compound 0.000316 µM): 6.76%
- viability, T/C (second compound 10 µM, first compound 0.001 µM): 6.12%
- viability, T/C (second compound 10 µM, first compound 0.00316 µM): 6.36%
- viability, T/C (second compound 10 µM, first compound 0.01 µM): 5.83%
- viability, T/C [9]: 6.8%
- viability, T/C [10]: 9.69%

- IC50 (second compound 0.1 µM): < 31.6 nM
- IC50 (second compound 0.316 µM): < 31.6 nM
- IC50 (second compound 1 µM): < 31.6 nM
- IC50 (second compound 3.16 µM): < 31.6 nM
- IC50 (second compound 10 µM): < 31.6 nM
Compound: O=C(c1cc(Cc2n[nH]c(=O)c3ccccc23)ccc1F)N1CCN(C(=O)C2CC2)CC1 + Cc1c(S(C)(=O)=O)c(-c2cc(F)cc(N3CCN(c4ccc(NS(=O)(=O)c5ccc(NC(CCN6CCC(C(=O)OCCCP(=O)(O)O)CC6)CSc6ccccc6)c(S(=O)(=O)C(F)(F)F)c5)cc4)CC3)c2)c(-c2ccc(Cl)cc2)n1C(C)C
- viability, T/C [1]: 14.8%
- viability, T/C [2]: 14.2%
- viability, T/C (second compound 0.1 µM, first compound 0.316 µM): 14.6%
- viability, T/C (second compound 0.1 µM, first compound 1 µM): 17.6%
- viability, T/C (second compound 0.1 µM, first compound 3.16 µM): 18.5%
- viability, T/C (second compound 0.1 µM, first compound 10 µM): 13.5%
- viability, T/C [3]: 9.83%
- viability, T/C [4]: 9.85%
- viability, T/C (second compound 0.316 µM, first compound 0.316 µM): 10.5%
- viability, T/C (second compound 0.316 µM, first compound 1 µM): 10.7%
- viability, T/C (second compound 0.316 µM, first compound 3.16 µM): 16.4%
- viability, T/C (second compound 0.316 µM, first compound 10 µM): 9.72%
- viability, T/C [5]: 8.79%
- viability, T/C [6]: 10.4%
- viability, T/C (second compound 1 µM, first compound 0.316 µM): 9.85%
- viability, T/C (second compound 1 µM, first compound 1 µM): 8.8%
- viability, T/C (second compound 1 µM, first compound 3.16 µM): 11%
- viability, T/C (second compound 1 µM, first compound 10 µM): 8.8%
- viability, T/C [7]: 6.37%
- viability, T/C [8]: 7.47%
- viability, T/C (second compound 3.16 µM, first compound 0.316 µM): 8.14%
- viability, T/C (second compound 3.16 µM, first compound 1 µM): 5.82%
- viability, T/C (second compound 3.16 µM, first compound 3.16 µM): 8%
- viability, T/C (second compound 3.16 µM, first compound 10 µM): 7.02%
- viability, T/C [9]: 4.38%
- viability, T/C [10]: 4.61%
- viability, T/C (second compound 10 µM, first compound 0.316 µM): 6.78%
- viability, T/C (second compound 10 µM, first compound 1 µM): 4.36%
- viability, T/C (second compound 10 µM, first compound 3.16 µM): 5.03%
- viability, T/C (second compound 10 µM, first compound 10 µM): 5.76%
